Earlier results on one substance are cited in patent publication US20240423930A1, “PHARMACEUTICAL COMPOSITION AND METHOD FOR TREATING CARDIOVASCULAR DISEASES” (priority 2020, published 2024).

The data set relates to furin. The conditions noted are these: ectopic expression of the inhibitor; in vitro digestion assay.

For “alpha (1)-antitrypsin Portland [alpha(1)-AT-PDX]”, the “blocked TGF-beta1 processing mediated by endogenous enzymes” value is given as 80%.
